Only the 19 paired bases of each siRNA are shown; overhangs and chemistry are not given here.
Molecular target: firefly luciferase
Experiment: five studies, different assays
Details: siRNA
Also: test concentration or dose not given here.

Substance | target inhibition [%]
sense GAUUACGUCGCCAGUCAAG / antisense CUUGACUGGCGACGUAAUC | 96
sense GCCGCCGUUGUUGUUUUGG / antisense CCAAAACAACAACGGCGGC | 13.8
sense GACAAAUACGAUUUAUCUA / antisense UAGAUAAAUCGUAUUUGUC | 86.5
sense CUUCCCGCCGCCGUUGUUG / antisense CAACAACGGCGGCGGGAAG | 47.2
sense CGAAGUACCGAAAGGUCUU / antisense AAGACCUUUCGGUACUUCG | 93.1
sense AAAACUCGACGCAAGAAAA / antisense UUUUCUUGCGUCGAGUUUU | 94.6
sense UACCGGAAAACUCGACGCA / antisense UGCGUCGAGUUUUCCGGUA | 95.9
sense CGCCAGUCAAGUAACAACC / antisense GGUUGUUACUUGACUGGCG | 79.5
sense ACGCCAAAAACAUAAAGAA / antisense UUCUUUAUGUUUUUGGCGU | 94.9
sense CCGGUUAUGUAAACAAUCC / antisense GGAUUGUUUACAUAACCGG | 41.6
sense CCGGAUACUGCGAUUUUAA / antisense UUAAAAUCGCAGUAUCCGG | 96.3
sense AGAUCCUCAUAAAGGCCAA / antisense UUGGCCUUUAUGAGGAUCU | 78.2
sense AACAUAAAGAAAGGCCCGG / antisense CCGGGCCUUUCUUUAUGUU | 7.6
sense UGGAGCACGGAAAGACGAU / antisense AUCGUCUUUCCGUGCUCCA | 52.2
sense AGUCAAGUAACAACCGCGA / antisense UCGCGGUUGUUACUUGACU | 88.5
sense CCGCCGCCGUUGUUGUUUU / antisense AAAACAACAACGGCGGCGG | 60.8
sense AGAGAUCCUCAUAAAGGCC / antisense GGCCUUUAUGAGGAUCUCU | 38.7
sense GCACGGAAAGACGAUGACG / antisense CGUCAUCGUCUUUCCGUGC | 39.2
sense CCAGUCAAGUAACAACCGC / antisense GCGGUUGUUACUUGACUGG | 66.1
sense CGAAAAAGUUGCGCGGAGG / antisense CCUCCGCGCAACUUUUUCG | 78.6
sense GUUGGCAGAAGCUAUGAAA / antisense UUUCAUAGCUUCUGCCAAC | 93.1
sense GGAGGAGUUGUGUUUGUGG / antisense CCACAAACACAACUCCUCC | 93.2
sense ACGGAAAAAGAGAUCGUGG / antisense CCACGAUCUCUUUUUCCGU | 58.8

Substance | target inhibition [%]
sense CCGCGAACGACAUUUAUAA / antisense UUAUAAAUGUCGUUCGCGG | 94.9
sense AAGUAACAACCGCGAAAAA / antisense UUUUUCGCGGUUGUUACUU | 76.6
sense CGAAAGGUCUUACCGGAAA / antisense UUUCCGGUAAGACCUUUCG | 95
sense CUCGACGCAAGAAAAAUCA / antisense UGAUUUUUCUUGCGUCGAG | 91
sense CCUUCAGGAUUACAAGAUU / antisense AAUCUUGUAAUCCUGAAGG | 98.9
sense UGGACGAAGUACCGAAAGG / antisense CCUUUCGGUACUUCGUCCA | 70.3
sense UCAAGUAACAACCGCGAAA / antisense UUUCGCGGUUGUUACUUGA | 88.5
sense AAUCAGAGAGAUCCUCAUA / antisense UAUGAGGAUCUCUCUGAUU | 91.7
sense AAAAUCAGAGAGAUCCUCA / antisense UGAGGAUCUCUCUGAUUUU | 88.4
sense CAUUCUAUCCGCUGGAAGA / antisense UCUUCCAGCGGAUAGAAUG | 93.2
sense ACCGCGAAAAAGUUGCGCG / antisense CGCGCAACUUUUUCGCGGU | 29.9
sense GAUGAUAAACCGGGCGCGG / antisense CCGCGCCCGGUUUAUCAUC | 52.9
sense GCGCGGAGGAGUUGUGUUU / antisense AAACACAACUCCUCCGCGC | 86.8
sense AUCCGCUGGAAGAUGGAAC / antisense GUUCCAUCUUCCAGCGGAU | 23.4
sense AGUUGCGCGGAGGAGUUGU / antisense ACAACUCCUCCGCGCAACU | 93.6
sense UGUGUUUGUGGACGAAGUA / antisense UACUUCGUCCACAAACACA | 90.8
sense CGCCGUUGUUGUUUUGGAG / antisense CUCCAAAACAACAACGGCG | 74.8
sense UUACGUCGCCAGUCAAGUA / antisense UACUUGACUGGCGACGUAA | 92.9
sense AGUUGCAGUUGCGCCCGCG / antisense CGCGGGCGCAACUGCAACU | 37.3
sense UUUGGAGCACGGAAAGACG / antisense CGUCUUUCCGUGCUCCAAA | -10.4
sense AUGGAACCGCUGGAGAGCA / antisense UGCUCUCCAGCGGUUCCAU | 35.4
sense ACGAUGACGGAAAAAGAGA / antisense UCUCUUUUUCCGUCAUCGU | 80.7
sense GCGGAGGAGUUGUGUUUGU / antisense ACAAACACAACUCCUCCGC | 92.3

Substance | target inhibition [%]
sense GAAAAAUCAGAGAGAUCCU / antisense AGGAUCUCUCUGAUUUUUC | 86.8
sense AGAUCGUGGAUUACGUCGC / antisense GCGACGUAAUCCACGAUCU | 67
sense UUGUUUUGGAGCACGGAAA / antisense UUUCCGUGCUCCAAAACAA | 89.2
sense UCCCGCCGCCGUUGUUGUU / antisense AACAACAACGGCGGCGGGA | 43.8
sense AAAACAUAAAGAAAGGCCC / antisense GGGCCUUUCUUUAUGUUUU | 11.1
sense GUUUUGGAGCACGGAAAGA / antisense UCUUUCCGUGCUCCAAAAC | -27.8
sense AUUAUCAUGGAUUCUAAAA / antisense UUUUAGAAUCCAUGAUAAU | 55.5
sense CGGCGCCAUUCUAUCCGCU / antisense AGCGGAUAGAAUGGCGCCG | 53.8
sense GAUGACGGAAAAAGAGAUC / antisense GAUCUCUUUUUCCGUCAUC | 47.6
sense AAGUACCGAAAGGUCUUAC / antisense GUAAGACCUUUCGGUACUU | 64.3
sense GGAUGGAUGGCUACAUUCU / antisense AGAAUGUAGCCAUCCAUCC | 97.4
sense GGUGAACUUCCCGCCGCCG / antisense CGGCGGCGGGAAGUUCACC | 14.5
sense GCUUCGAGCAGACAUGAUA / antisense UAUCAUGUCUGCUCGAAGC | 97.7
sense AAAGACGAUGACGGAAAAA / antisense UUUUUCCGUCAUCGUCUUU | 73.9
sense ACGUCGCCAGUCAAGUAAC / antisense GUUACUUGACUGGCGACGU | 84.1
sense UCCGGAAGCGACCAACGCC / antisense GGCGUUGGUCGCUUCCGGA | 89.7
sense GACGAAGUACCGAAAGGUC / antisense GACCUUUCGGUACUUCGUC | 89.7
sense GUCUUACCGGAAAACUCGA / antisense UCGAGUUUUCCGGUAAGAC | 61
sense GAGCACGGAAAGACGAUGA / antisense UCAUCGUCUUUCCGUGCUC | 20.3
sense UUCUGAUUACACCCGAGGG / antisense CCCUCGGGUGUAAUCAGAA | 10.7
sense AACUCGACGCAAGAAAAAU / antisense AUUUUUCUUGCGUCGAGUU | 90.2
sense AGGAGUUGUGUUUGUGGAC / antisense GUCCACAAACACAACUCCU | 87.5
sense UGAAGUCUCUGAUUAAGUA / antisense UACUUAAUCAGAGACUUCA | 91.9

Substance | target inhibition [%]
sense AUCCUCAUAAAGGCCAAGA / antisense UCUUGGCCUUUAUGAGGAU | -12.8
sense CAAAUACGAUUUAUCUAAU / antisense AUUAGAUAAAUCGUAUUUG | 87.8
sense GAGUUGUGUUUGUGGACGA / antisense UCGUCCACAAACACAACUC | 95.3
sense AAAGGUCUUACCGGAAAAC / antisense GUUUUCCGGUAAGACCUUU | 71.1
sense GUCGCCAGUCAAGUAACAA / antisense UUGUUACUUGACUGGCGAC | 44.9
sense CCAAUCAUCCAAAAAAUUA / antisense UAAUUUUUUGGAUGAUUGG | 97.5
sense GAUUAUGUCCGGUUAUGUA / antisense UACAUAACCGGACAUAAUC | 96.8
sense CCCGCCGCCGUUGUUGUUU / antisense AAACAACAACGGCGGCGGG | 42.3
sense GGAAAACUCGACGCAAGAA / antisense UUCUUGCGUCGAGUUUUCC | 92.7
sense CGACGCAAGAAAAAUCAGA / antisense UCUGAUUUUUCUUGCGUCG | 95.9
sense ACGCAAGAAAAAUCAGAGA / antisense UCUCUGAUUUUUCUUGCGU | 87.6
sense AGGUCUUACCGGAAAACUC / antisense GAGUUUUCCGGUAAGACCU | 90.1
sense AAAGUUGCGCGGAGGAGUU / antisense AACUCCUCCGCGCAACUUU | 95.5
sense GAUAUGGGCUGAAUACAAA / antisense UUUGUAUUCAGCCCAUAUC | 91.9
sense GGAAAGACGAUGACGGAAA / antisense UUUCCGUCAUCGUCUUUCC | 87.6
sense GUUGUUGUUUUGGAGCACG / antisense CGUGCUCCAAAACAACAAC | 32.6
sense AAGGCCCGGCGCCAUUCUA / antisense UAGAAUGGCGCCGGGCCUU | 23
sense CAACCGCGAAAAAGUUGCG / antisense CGCAACUUUUUCGCGGUUG | -1.3
sense UGUUUGUGGACGAAGUACC / antisense GGUACUUCGUCCACAAACA | 35.9
sense UAUGCCGGUGUUGGGCGCG / antisense CGCGCCCAACACCGGCAUA | 19.7
